Reference: the supplement of paper PMC10307832

Key:
Assay in all cases: relative viability (nuclei count vs DMSO), 5 days (fraction); higher = more cells survive
201T = test system: 201T
Outline: (§1)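 Lung cancer cell lines, seeded in 1536-well plates, were treated the following day by pin tool with a single drug or with five library-drug doses (not always all listed) in √10 steps on top of a fixed anchor-drug dose. Cells were fixed and nuclei stained in one step after 5 days, and nuclei were counted. Relative viability is the nuclei count for treated wells divided by that for vehicle wells, reported as medians of duplicate plates.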

COR-L 105 = test system: COR-L 105
Outline: as §1

EPLC-272H = test system: EPLC-272H
Outline: as §1

H3255 = test system: H3255
Outline: as §1

HCC-78 = test system: HCC-78
Outline: as §1

HCC-827 = test system: HCC-827
Outline: as §1

LC-2-ad = test system: LC-2-ad
Outline: as §1

LCLC-97TM1 = test system: LCLC-97TM1
Outline: as §1

NCI-H1666 = test system: NCI-H1666
Outline: as §1

NCI-H1915 = test system: NCI-H1915
Outline: as §1

NCI-H2087 = test system: NCI-H2087
Outline: as §1

NCI-H2126 = test system: NCI-H2126
Outline: as §1

NCI-H2347 = test system: NCI-H2347
Outline: as §1

NCI-H23 = test system: NCI-H23
Outline: as §1

NCI-H2405 = test system: NCI-H2405
Outline: as §1

NCI-H520 = test system: NCI-H520
Outline: as §1

NCI-H647 = test system: NCI-H647
Outline: as §1

NCI-H650 = test system: NCI-H650
Outline: as §1

NCI-H661 = test system: NCI-H661
Outline: as §1

PC-14 = test system: PC-14
Outline: as §1

RERF-LC-KJ = test system: RERF-LC-KJ
Outline: as §1

Structure (SMILES): CCN(CC)CCCCNc1ncc2cc(-c3cc(OC)cc(OC)c3)c(NC(=O)NC(C)(C)C)nc2n1 + Cc1nc(NC(=O)N2CCC[C@H]2C(N)=O)sc1-c1ccnc(C(C)(C)C(F)(F)F)c1 [Alpelisib] (partner 2 µM)
- relative viability (201T; first compound 0.01 µM): 1.05
- relative viability (201T; first compound 0.03162 µM): 1.01
- relative viability (201T; first compound 0.1 µM): 1.09
- relative viability (201T; first compound 0.3162 µM): 1.1
- relative viability (201T; first compound 1 µM): 0.97
- relative viability (COR-L 105; first compound 0.01 µM): 1
- relative viability (COR-L 105; first compound 0.03162 µM): 0.981
- relative viability (COR-L 105; first compound 0.1 µM): 1.06
- relative viability (COR-L 105; first compound 0.3162 µM): 1.01
- relative viability (COR-L 105; first compound 1 µM): 0.917
- relative viability (EPLC-272H; first compound 0.01 µM): 0.918
- relative viability (EPLC-272H; first compound 0.1 µM): 1.01
- relative viability (EPLC-272H; first compound 0.3162 µM): 1.07
- relative viability (EPLC-272H; first compound 1 µM): 0.883
- relative viability (H3255; first compound 0.01 µM): 0.788
- relative viability (H3255; first compound 0.03162 µM): 0.71
- relative viability (H3255; first compound 0.1 µM): 0.728
- relative viability (H3255; first compound 0.3162 µM): 0.713
- relative viability (H3255; first compound 1 µM): 0.689
- relative viability (HCC-78; first compound 0.03162 µM): 0.255
- relative viability (HCC-78; first compound 0.1 µM): 0.308
- relative viability (HCC-78; first compound 0.3162 µM): 0.348
- relative viability (HCC-78; first compound 1 µM): 0.303
- relative viability (HCC-827; first compound 0.01 µM): 0.968
- relative viability (HCC-827; first compound 0.03162 µM): 0.967
- relative viability (HCC-827; first compound 0.1 µM): 1.02
- relative viability (HCC-827; first compound 0.3162 µM): 1.16
- relative viability (HCC-827; first compound 1 µM): 1.02
- relative viability (LC-2-ad; first compound 0.01 µM): 1.03
- relative viability (LC-2-ad; first compound 0.03162 µM): 0.918
- relative viability (LC-2-ad; first compound 0.1 µM): 0.942
- relative viability (LC-2-ad; first compound 0.3162 µM): 1.07
- relative viability (LC-2-ad; first compound 1 µM): 0.865
- relative viability (LCLC-97TM1; first compound 0.03162 µM): 0.265
- relative viability (LCLC-97TM1; first compound 0.1 µM): 0.221
- relative viability (LCLC-97TM1; first compound 0.3162 µM): 0.216
- relative viability (LCLC-97TM1; first compound 1 µM): 0.244
- relative viability (NCI-H1666; first compound 0.01 µM): 0.963
- relative viability (NCI-H1666; first compound 0.03162 µM): 0.889
- relative viability (NCI-H1666; first compound 0.1 µM): 1.02
- relative viability (NCI-H1666; first compound 0.3162 µM): 0.995
- relative viability (NCI-H1666; first compound 1 µM): 0.74
- relative viability (NCI-H1915; first compound 0.01 µM): 1.07
- relative viability (NCI-H1915; first compound 0.03162 µM): 1.15
- relative viability (NCI-H1915; first compound 0.1 µM): 1.06
- relative viability (NCI-H1915; first compound 0.3162 µM): 1.14
- relative viability (NCI-H1915; first compound 1 µM): 1.07
- relative viability (NCI-H2087; first compound 0.01 µM): 1.12
- relative viability (NCI-H2087; first compound 0.03162 µM): 1.03
- relative viability (NCI-H2087; first compound 0.1 µM): 1.53
- relative viability (NCI-H2087; first compound 0.3162 µM): 1.23
- relative viability (NCI-H2087; first compound 1 µM): 1.15
- relative viability (NCI-H2126; first compound 0.01 µM): 0.736
- relative viability (NCI-H2126; first compound 0.03162 µM): 0.734
- relative viability (NCI-H2126; first compound 0.1 µM): 0.742
- relative viability (NCI-H2126; first compound 0.3162 µM): 0.815
- relative viability (NCI-H2126; first compound 1 µM): 0.75
- relative viability (NCI-H2347; first compound 0.01 µM): 1.08
- relative viability (NCI-H2347; first compound 0.03162 µM): 1.09
- relative viability (NCI-H2347; first compound 0.1 µM): 1.04
- relative viability (NCI-H2347; first compound 0.3162 µM): 1.09
- relative viability (NCI-H2347; first compound 1 µM): 1.11
- relative viability (NCI-H23; first compound 0.01 µM): 0.706
- relative viability (NCI-H23; first compound 0.03162 µM): 0.735
- relative viability (NCI-H23; first compound 0.1 µM): 0.851
- relative viability (NCI-H23; first compound 0.3162 µM): 0.653
- relative viability (NCI-H23; first compound 1 µM): 0.678
- relative viability (NCI-H2405; first compound 0.01 µM): 0.574
- relative viability (NCI-H2405; first compound 0.03162 µM): 0.709
- relative viability (NCI-H2405; first compound 0.1 µM): 0.814
- relative viability (NCI-H2405; first compound 0.3162 µM): 0.862
- relative viability (NCI-H2405; first compound 1 µM): 0.72
- relative viability (NCI-H520; first compound 0.01 µM): 1.07
- relative viability (NCI-H520; first compound 0.03162 µM): 0.898
- relative viability (NCI-H520; first compound 0.1 µM): 1.16
- relative viability (NCI-H520; first compound 0.3162 µM): 0.662
- relative viability (NCI-H520; first compound 1 µM): 0.332
- relative viability (NCI-H647; first compound 0.01 µM): 1.41
- relative viability (NCI-H647; first compound 0.03162 µM): 1.3
- relative viability (NCI-H647; first compound 0.1 µM): 1.31
- relative viability (NCI-H647; first compound 0.3162 µM): 1.13
- relative viability (NCI-H647; first compound 1 µM): 0.465
- relative viability (NCI-H650; first compound 0.01 µM): 1.04
- relative viability (NCI-H650; first compound 0.03162 µM): 1.04
- relative viability (NCI-H650; first compound 0.1 µM): 1.21
- relative viability (NCI-H650; first compound 0.3162 µM): 1.09
- relative viability (NCI-H650; first compound 1 µM): 0.865
- relative viability (NCI-H661; first compound 0.01 µM): 0.537
- relative viability (NCI-H661; first compound 0.03162 µM): 0.382
- relative viability (NCI-H661; first compound 0.1 µM): 0.657
- relative viability (NCI-H661; first compound 0.3162 µM): 0.858
- relative viability (NCI-H661; first compound 1 µM): 0.535
- relative viability (PC-14; first compound 0.01 µM): 1.02
- relative viability (PC-14; first compound 0.03162 µM): 1.08
- relative viability (PC-14; first compound 0.1 µM): 0.879
- relative viability (PC-14; first compound 0.3162 µM): 1.16
- relative viability (PC-14; first compound 1 µM): 0.943
- relative viability (RERF-LC-KJ; first compound 0.01 µM): 1.08
- relative viability (RERF-LC-KJ; first compound 0.03162 µM): 0.919
- relative viability (RERF-LC-KJ; first compound 0.1 µM): 0.925
- relative viability (RERF-LC-KJ; first compound 0.3162 µM): 0.951
- relative viability (RERF-LC-KJ; first compound 1 µM): 0.826
